# Experimental data as given in patent publication US20240191303A1, “METHODS FOR OPTIMIZING THE TREATMENT OF COLORECTAL CANCER” (Brown University, priority 2021, published 2024).
# Entries after “also recorded” stand apart in the source; their conditions may differ. Like-named read-outs stand apart in the source and are kept apart here.
# Columns and labels:
# [1] = test system: HCT116 and HCT116 p53−/− cells; assay: Clariom D microarrays, RNA expression relative to untreated cells; assay type: cell-based, human; conditions: IC50 dose, 8 h; for BTG2 induction, rank in p53-dependent gene signature: fold change>2
# Method: Microarrays. Total cellular RNA was isolated, and Clariom™ D microarrays were used to measure changes in RNA expression relative to untreated cells. A total of 7×10^5 HCT116 and HCT116 p53^−/− cells were plated in a 6-well plate and incubated for twelve-sixteen hours before being treated with 5-fluorouracil, CPT-11, oxaliplatin, or cisplatin at their respective IC50 doses for eight hours. Cell pellets were collected and split into two tubes, one for western blot analysis and one for RNA extraction. Samples were randomized, and RNA was isolated (Qiagen 74134) in five batches to ensure a high-quality RNA product. Acceptable RNA concentration and quality were verified with Nanodrop and Bioanalyzer measurements. Clariom D Microarrays (ThermoFisher 902923) were conducted according to the manufacturer's protocol in two batches on randomized samples to limit batch effects.
# Statistical analysis. TAC software was used to calculate fold changes and statistical significance. Microarrays Applied Biosystems Transcriptomic Analysis Console (TAC) software was used to calculate fold-changes in gene expression relative to the untreated control cells. p-values<0.05 were considered significant.
# To define a pan-drug signature and to evaluate heterogeneity in the p53 response on a whole-transcriptome scale, the inventors treated HCT116 and HCT116 p53^−/− cells with each of the four drugs at their IC50 for eight hours. The RNA expression relative to an untreated control was measured using microarray analysis. Upregulation of p53 in these samples and equal induction of cell death at this dose and time point was validated by Western blot and CellTiterGlo, respectively, before microarray analysis. […] Each internal control had tightly clustered triplicates. Quality control measurements were also determined to be satisfactory for further analysis.
# [2] = test system: HCT116 and HCT116 p53−/− cells; assay: Cytokine profiling of cell supernatants (Luminex 200), p53 status not separated; assay type: cell-based, human; conditions: for VEGF production/release: both HCT116 and HCT116 p53−/−
# Method: A total of 4×10^4 HCT116 or HCT116 p53^−/− cells were plated per well of a 24-well plate and incubated twelve-sixteen hours before treatment with 55-fluorouracil, CPT-11, oxaliplatin, cisplatin, or various combination treatments at the appropriate IC50 (combination treatments received each drug at their IC50). Cell supernatants were collected at forty-eight hours after treatment and stored at −20° C. Samples were prepared and run in triplicate on a Luminex 200 Instrument (R&D LX200-XPON-RUO). Sample preparation was conducted, and instrument settings were selected based on the Human Magnetix Luminex Assay (R&D LXSAHM) protocol.
# [3] = cited from earlier work
# [4] = oxaliplatin-treated mice; cited from earlier work
# HCT116 cells (wild-type) = assay: Cytokine profiling of cell supernatants (Luminex 200), wild-type cells; assay type: cell-based, human; conditions: IC50, 48 h
# Method: (§1) Cytokine profiling. A total of 4×10^4 HCT116 or HCT116 p53^−/− cells were plated per well of a 24-well plate and incubated twelve-sixteen hours before treatment with […], CPT-11, oxaliplatin, cisplatin, or various combination treatments at the appropriate IC50 (combination treatments received each drug at their IC50). Cell supernatants were collected at forty-eight hours after treatment and stored at −20° C. Samples were prepared and run in triplicate on a Luminex 200 Instrument (R&D LX200-XPON-RUO). Sample preparation was conducted, and instrument settings were selected based on the Human Magnetix Luminex Assay (R&D LXSAHM) protocol.
# (§2) Cytokine profiling. Results were analyzed in GraphPad prism, and statistical significance across drugs was determined separately for wild-type and ^−/− cells with a one-way ANOVA. p-values<0.05 were considered significant.
# (§3) HCT116 and HCT116 p53^−/− cells were treated with the four drugs (5-FU, CPT-11, oxaliplatin, and cisplatin) at their IC50s and combination treatment groups received two-three drugs, each at their individual IC50 concentration.
# HCT116 p53−/− cells = assay: Cytokine profiling of cell supernatants (Luminex 200), p53−/− cells; assay type: cell-based, human; conditions: IC50, 48 h
# Method: as §1, §2, §3
# [5] = drug(s) each at IC50, 48 h, vs control
# [6] = drug at IC50, 48 h, HCT116 vs HCT116 p53−/−
structure (smiles),measurement,setting,value
"CCc1c2c(nc3ccc(OC(=O)N4CCC(N5CCCCC5)CC4)cc13)-c1cc3c(c(=O)n1C2)COC(=O)[C@]3(O)CC [CPT-11, Irinotecan]",DRAM1 transcript regulation,[1],"p53-dependent, CPT-11-specific regulation"
same,FDXR transcript regulation,[1],"p53-dependent, CPT-11-specific regulation"
same,TLR3 transcript regulation,[1],"p53-dependent, CPT-11-specific regulation"
same,"transcripts of the 5-fluorouracil/CPT-11/oxaliplatin-specific signature (e.g., SERPINE1, CEACAM1, C1orf116)",[1],upregulated
same,"BTG2 induction, rank in p53-dependent gene signature",[1],second most highly induced gene
same,VEGF production/release,"[2]; drug at IC50, 48 h",downregulated
same,TRAILR2 level in cell supernatant,"[2]; drug at IC50, 48 h, vs control",not affected
same,IL-8 level in cell supernatant,[2]; [5],moderate increase
"O=C1[O][Pt]2([NH][C@@H]3CCCC[C@H]3[NH]2)[O]C1=O [oxaliplatin, Oxaliplatin]","peripheral neuropathy, share of patients",[3],30-50%
same,ATF3 transcript regulation,[1],Upregulation
same,FOS transcript regulation,[1],uniquely upregulated
same,SAT1 transcript regulation,[1],uniquely upregulated
same,SUSD2 transcript regulation,[1],uniquely upregulated
same,"transcripts of the 5-fluorouracil/CPT-11/oxaliplatin-specific signature (e.g., SERPINE1, CEACAM1, C1orf116)",[1],upregulated
same,"BTG2 induction, rank in p53-dependent gene signature",[1],top upregulated gene; also recorded: most highly induced gene
same,neuronal damage (upregulation of FOS and ATF3),[4],neuronal damage
same,IL-8 level in cell supernatant,[2],increase
same,TRAILR2 level in cell supernatant,[2],down-regulated
same,p53 dependence of TRAILR2 regulation,[2],dependent on p53
same,VEGF production/release,"[2]; drug at IC50, 48 h",downregulated
same,IL-8 level in cell supernatant,HCT116 cells (wild-type),did not affect
same,IL-8 level in cell supernatant,HCT116 p53−/− cells,induced
"O=c1[nH]cc(F)c(=O)[nH]1 [5-fluorouracil, 5-Fluorouracil]",BAX transcript regulation,[1],slight preferential upregulation; also recorded: preferentially upregulated
same,histone gene regulation,[1],strikingly unique down-regulation; also recorded: uniquely down-regulated
same,"transcripts of the 5-fluorouracil/CPT-11/oxaliplatin-specific signature (e.g., SERPINE1, CEACAM1, C1orf116)",[1],upregulated
same,"BTG2 induction, rank in p53-dependent gene signature",[1],top upregulated gene; also recorded: most highly induced gene
same,p53 dependence of TRAILR2 regulation,[2]; [6],p53-independent
same,VEGF production/release,"[2]; drug at IC50, 48 h",downregulated
same,TRAILR2 level in cell supernatant,"[2]; drug at IC50, 48 h, vs control",down-regulated
N.N.[Cl][Pt][Cl] [cisplatin],PITPNC1 transcript regulation,[1],downregulation
same,PRPF39 transcript regulation,[1],upregulation
same,ROR1 transcript regulation,[1],downregulation
same,"transcripts of the 5-fluorouracil/CPT-11/oxaliplatin-specific signature (e.g., SERPINE1, CEACAM1, C1orf116)",[1],unaffected
same,"BTG2 induction, rank in p53-dependent gene signature",[1],top upregulated gene; also recorded: most highly induced gene
same,p53 dependence of TRAILR2 regulation,[2]; [6],despite p53 status
same,VEGF production/release,"[2]; drug at IC50, 48 h",downregulated
same,TRAILR2 level in cell supernatant,"[2]; drug at IC50, 48 h, vs control",increased
same,ferritin level in cell supernatant,[2]; [5],increase
same,ferritin level in cell supernatant,HCT116 p53−/− cells,large increase
CN(C)C(=N)N=C(N)N [metformin],reversal of oxaliplatin-induced neuronal damage,[4],reversible
